From patent publication US20250213546A1, “TREATING CANCER WITH SMALL MOLECULES THAT INHIBIT ACSS-2” (DREXEL UNIVERSITY, priority 2022, published 2025)
Read-outs that look alike come from different tables or passages of the source.

Assays:
Human plasma stability = format: in vitro ADME; conditions: both sexes, 37° C., up to 120 min, read-out: Human Plasma Stability T1/2
Experimental: (§1) Metabolic Stability and Plasma Stability. Test compound Working solution: 5 μL of compound stock solution (10 mM in dimethyl sulfoxide (DMSO)) were diluted with 495 μL of DMSO (Working solution concentration: 100 μM, 100% DMSO). Propantheline bromide Working solution: 5 μL of Propantheline bromide stock solution (10 mM in H2O) were diluted with 495 μL of H2O (Working solution concentration: 100 μM, 100% H2O)
Human plasma from 3 males and 3 females was obtained. Heparin was used as the anticoagulant. The pooled frozen plasma was thawed in a water bath at 37° C. prior to experiment. Plasma was centrifuged at 4000 rpm for 5 min and the clots were removed if any. Using an Apricot automation workstation, 98 μL/well of blank plasma were added to all 96-well reaction plates. (Blank, T0, T10, T30, T60 and T120). The appointed incubation time points are T0 (0 min), Tn (n=0, 10, 30, 60, 120 min). An Apricot automation workstation was used to add 2 μL/well of working solution (100 μM) to all reaction plates except Blank. (T0, T10, T30, T60 and T120). All reaction plates containing mixtures of compound and plasma were incubated at 37° C. in water bath. The reaction plates were incubated at 37° C., and timer was started. At the end of incubation, 500 μL of stop solution was added and mixed (200 ng/mL tolbutamide and 200 ng/ml labetalol in ACN) to precipitate protein. Each plate was sealed and shaken for 20 minutes. After shaking, each plate was centrifuged at 4000 rpm and 4° C. for 20 minutes. After centrifugation, an Apricot automation workstation was used to transfer 150 μL of supernatant from each reaction plate to its corresponding bioanaylsis plate. Each bioanalysis plate was sealed and shaken for 10 minutes prior to LC-MS/MS analysis. The % remaining of test compound after incubation in plasma was calculated using following equation: Remaining=100×(PAR at appointed incubation time/PAR at T0 time) where PAR is the peak area ratio of analyte versus internal standard (IS).

MDR1 = assay: in vitro; conditions: dog, MDCK-MDR1, pH 7.4, Mean % Solution Recovery A to B
Experimental: MDCKI MDR1 cell permeability assessment was performed to mimic the blood brain barrier. MDR1-MDCK I cells were seeded onto […] (PET) in 96-well Corning insert systems at 2.5×10^5 cells/mL until to 4-7 days for confluent cell monolayer formation. The transport buffer in the study was HBSS with 10.0 mM HEPES at pH 7.40+0.05. Test compounds were tested at 2.00 μM bi-directionally in duplicate. […] Final DMSO concentration was adjusted to less than 1%. The plate was incubated for 1.5 hours in CO2 incubator at 37±1° C., with 5% CO2 at saturated humidity without shaking. All samples after mixed with acetonitrile containing internal standard were centrifuged at 3220×g for 10 min. For all samples, 150 μL supernatant solution was diluted with 150 μL ultra-pure water for LC-MS/MS analysis. In addition, the efflux ratio of each compound was also determined. Test and reference compounds were quantified by LC-MS/MS analysis based on the peak area ratio of analyte/IS. After transport assay, Lucifer yellow rejection assay are applied to determine the cell monolayer integrity. Buffers are removed from both apical and basolateral chambers, followed by the addition of 75 μL of 100 μM lucifer yellow in transport buffer and 250 μL transport buffer in apical and basolateral chambers, respectively. […] After 30 minutes incubation, 20 μL of lucifer yellow samples are taken from the apical sides, followed by the addition of 60 μL of Transport Buffer. And then 80 μL of lucifer yellow samples are taken from the basolateral sides.
The apparent permeability coefficient Papp (cm/s) was calculated using the equation: Papp=(dCr/dt)×Vr/(A×C0) where dCr/dt is the cumulative concentration of compound in the receiver chamber as a function of time (μM/s); Vr is the solution volume in the receiver chamber (0.075 mL on the apical side, 0.25 mL on the basolateral side); A is the surface area for the transport, i.e. 0.0804 cm^2 for the area of the monolayer; CO is the initial concentration in the donor chamber (μM). […] Percent of lucifer yellow in basolateral well is calculated using the equation: Where RFUApical and RFUBasolateral are the relative fluorescence unit values of lucifer yellow in the apical and basolateral wells, respectively; VApical and VBasolateral are the volume of apical and basolateral wells (0.075 mL and 0.25 mL), respectively. The % Lucifer Yellow should be less than 1.0.

hACSS-2 = hACSS-2 (Homo sapiens (Human), UniProt Q9NR19); assay: Surface plasmon resonance (SPR) binding to immobilized hACSS-2; conditions: for koff / kon: 1:1 binding model
Chain of hACSS-2 (Q9NR19 whole entry): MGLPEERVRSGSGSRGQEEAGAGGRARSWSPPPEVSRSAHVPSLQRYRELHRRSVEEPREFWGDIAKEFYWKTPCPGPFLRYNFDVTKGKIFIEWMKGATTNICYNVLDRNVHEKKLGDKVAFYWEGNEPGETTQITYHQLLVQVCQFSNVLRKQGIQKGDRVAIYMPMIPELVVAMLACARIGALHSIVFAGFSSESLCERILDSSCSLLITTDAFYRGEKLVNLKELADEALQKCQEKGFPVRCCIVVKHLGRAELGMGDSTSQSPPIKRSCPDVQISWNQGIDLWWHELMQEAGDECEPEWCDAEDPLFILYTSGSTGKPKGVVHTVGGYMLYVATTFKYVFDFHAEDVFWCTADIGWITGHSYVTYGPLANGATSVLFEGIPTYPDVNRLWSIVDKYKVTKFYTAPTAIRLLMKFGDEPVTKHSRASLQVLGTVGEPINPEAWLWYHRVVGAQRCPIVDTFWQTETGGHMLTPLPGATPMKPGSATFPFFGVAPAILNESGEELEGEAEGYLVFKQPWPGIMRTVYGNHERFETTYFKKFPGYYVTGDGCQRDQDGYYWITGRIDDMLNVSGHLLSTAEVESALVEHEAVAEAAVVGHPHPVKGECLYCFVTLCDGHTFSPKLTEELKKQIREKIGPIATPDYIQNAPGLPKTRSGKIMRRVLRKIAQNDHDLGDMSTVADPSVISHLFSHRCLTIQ
Experimental: SPR characterization. All binding assays were performed on a ProteOn XPR36 SPR Protein Interaction Array System (Bio-Rad Laboratories, Hercules, CA, USA). The instrument temperature was set at 25° C. for all kinetic analyses. ProteOn GLH sensor chips were preconditioned with two short pulses each (10 s) of 50 mM NaOH, 100 mM HCl, and 0.5% sodium dodecyl […]. Then the system was equilibrated with running buffer (1×PBS pH 7.4, 3% DMSO and 0.005% polysorbate 20). The surface of a GLH sensor chip was activated with a 1:100 dilution of a 1:1 mixture of 1-ethyl-3-(3-dimethylaminopropyl) carbodiimide hydrochloride (0.2 M) and sulfo-N-hydroxysuccinimide (0.05 M). […] Then, after unreacted protein had been washed out, excess active ester groups on the sensor surface were capped by a 5 min injection of 1M ethanolamine HCl (pH 8.0) at a flow rate of 5 μL/min. A reference surface was similarly created by immobilizing a nonspecific protein (IgG b12 anti-HIV-1 gp120; was obtained through the NIH AIDS Reagent Program, Division of AIDS, NIAID, NIH: Anti-HIV-1 gp120 Monoclonal (IgG1 b12) from Dr. Dennis Burton and Carlos Barbas) and was used as a background to correct nonspecific binding. Serial dilutions of hACSS-2 inhibitors were then prepared in the running buffer and injected at a flow rate of 100 μL/min, for a 50 s association phase, followed by up to a 5 min dissociation phase using the “one-shot kinetics” capability of the ProteOn instrument. Data were analyzed using the ProteOn Manager Software version 3.0 (Bio-Rad). The responses from the reference flow cell were subtracted to account for the nonspecific binding and injection artifacts. Experimental data were fitted to a simple 1:1 binding model. Experiments were performed in triplicate to detect kinetic and equilibrium dissociation constants (KD).
Overproduction of hACSS-2 was achieved using a prokaryotic expression system. […] The bacterial expressions were then spun down, the supernatant discarded, and the pellets resuspended. After the cells were lysed via sonication, the sample was subjected to ultracentrifugation, and the clarified lysate was applied to a Talon cobalt resin affinity column (Clonetech Laboratories, Mountain View, CA). The bound protein was eluted from the column using 1×PBS pH 7.4 with 0.3 M imidazole, then dialyzed overnight into 20 mM Tris-HCl pH 8.0, concentrated to 10 mg/mL, aliquoted, and stored at −80° C.

[1] = Human liver microsome stability; format: in vitro ADME; conditions: for Human Liver Microsome Stability Remaining(T = 60 min) / Human Liver Microsome Stability Remaining(NCF = 60 min): given as fraction
Experimental: as §1

FASN = FASN expression (immunoblot); format: cell-based, human; conditions: BCBM cells
Experimental: ACSS-2 provides Acetyl-CoA for numerous metabolic processes vital for cancer proliferation. The human fatty acid synthase (FASN) is essential for BCBM growth and survival (FIG. 13A), and hACSS-2 does regulate FASN protein expression levels BCBM cells (FIG. 13B).
ACSS2 inhibitors on levels of lipid droplet storage. Briefly, cell lysates from 1-5×10^6 cells were prepared in radioimmune precipitation assay buffer (150 mM NaCl, 1% NP40, 0.5% DOC, 50 mM Tris HCL at pH 8, 0.1% SDS, 10% glycerol, 5 mM EDTA, 20 mM NaF, and 1 mM Na3 VO4) supplemented with 1 μg/ml each of pepstatin, leupeptin, aprotinin, and 200 μg/ml PMSF. Lysates were cleared by centrifugation at 16,000×g for 15 minutes at 4° C. and analyzed by SDS-PAGE and autoradiography with chemiluminescence. Proteins were analyzed by immunoblotting using primary antibodies against Fatty Acid Synthase (FASN) (Cell Signaling) and beta-Tubulin (Cell Signaling) (FIG. 16A).

MDA-MB-231BR cells = assay: Clonogenicity assay; format: cell-based; conditions: after treatment
Experimental: Triple-negative brain trophic cells MDA-MB-231BR (Center for Cancer Research, National Cancer Institute) were cultured with 10% fetal bovine serum (FBS), 5% 10,000 Units/mL Penicillin-10,000 μg/mL Streptomycin, and 5% 200 mM L-Glutamine. […] For crystal violet staining, 5×10^4 cells were plated in to a 6-well plate and subjected to the treatments as described in the individual figures and then stained with 0.5% crystal violet prepared in a 1:1 methanol-water solution followed by dH2O washes.
To assess clonogenic survival, cells were cultured and detached in their respective growth media, then counted using a hemocytometer. 1,000 cells were plated in triplicate in 6-well plates in their respective growth media and allowed to form colonies. Cells were grown for 14 days. Upon conclusion of growth period, colonies were stained with crystal violet. Colony numbers were quantified based on number of colonies with >40 cells. For clonogenic survival based on drug exposure, 100,000 cells were plated in a 6-well plate, then 24 hours later treated with noted concentration of drug for 48 hours. After 48 hours, cells in each concentration condition were lifted, counted, and plated per the described clonogenic survival protocol and allowed to grow for noted length of time in noted growth media. […] Colony numbers were quantified based on number of colonies with >40 cells.

4T1-BR = assay: Ex vivo BCBM mouse brain slice model, 4T1-BR; format: cell-based; conditions: bioluminescence
Experimental: (§2) Ex vivo brain slice model. Organotypic hippocampal cultures were prepared as described previously (PMID: 34633392). Briefly, adult mice (6-8 week) or mice after 12 days following intracranial injection were decapitated and their brains rapidly removed into ice-cold (4° C.) sucrose-aCSF composed of the following (in mM): 280 sucrose, 5 KCl, 2 MgCl2, 1 CaCl2, 20 glucose, 10 HEPES, 5 Na+-ascorbate, 3 thiourea, 2 Na+-pyruvate; pH=7.3. Brains were blocked with a sharp scalpel and sliced into 250 μm sections using a McIlwain-type tissue chopper (Vibrotome inc). Four to six slices were placed onto each 0.4 μm Millicell tissue culture insert (Millipore) in six-well plates, 1 ml of medium containing the following: Neurobasal medium A (Gibco), 2% Gem21-Neuroplex supplement (Gemini), 1% N2 supplement (Gibco), 1% glutamine (Invitrogen), 0.5% glucose, 10 U/ml penicillin, and 100 μg/ml streptomycin (Invitrogen), placed underneath each insert. One-third to one half of the media was changed every 2 d. Tumor growth was monitored via bioluminescence imaging on the IVIS 200 system (Perkin Elmer) and results analyzed using Living Image software (Caliper Life Sciences, Waltham, MA, USA). […] Tissues were incubated at 37° C., 5% CO2 for 4 hours and absorbance at 490 nm was measured with Tecan Spark Microplate reader.

MDA-MB-231-BR = assay: Ex vivo BCBM mouse brain slice model, MDA-MB-231-BR; format: cell-based; conditions: bioluminescence
Experimental: as §2

[2] = Langmuir isotherm equilibrium fit, mean, n = 3, read-out: KD [μM] equilibrium
[3] = global fit, mean, n = 3, read-out: KD [μM] kinetic/global
[4] = read-out: Affinity (KD in μM) for hACSS-2 mean ± SD (n = 3), SPR, one site binding model isotherm, triplicate

## CC(C)[N+](C)(CCOC(=O)C1c2ccccc2Oc2ccccc21)C(C)C [Propantheline Bromide, Propantheline bromide, reference compound]
Human plasma stability
  half-life at 2 µM: 18.6 min

## COCCc1ccc(OCC(O)CNC(C)C)cc1 (centres unmarked) [Metoprolol, reference compound]
MDR1
  recovery at 1.5 h, 2 μM: 94.2%

## CN1CCC(O)(C(=O)NCCc2ccccc2Oc2ccccc2)CC1 [AD-7346]
hACSS-2; mean, n = 3
  koff: 0.399 s⁻¹
  kon: 10100 M⁻¹ s⁻¹
hACSS-2; [2]
  Kd: 39.8 µM
hACSS-2; [3]
  Kd: 49.4 µM
hACSS-2; [4]
  Kd: 53 ± 21 µM

## O=C(O)Cc1ccccc1Nc1c(Cl)cccc1Cl [Diclofenac, reference compound]
[1]
  Human Liver Microsome Stability Remaining(T = 60 min): 0.00044
  Human Liver Microsome Stability Remaining(NCF = 60 min): 0.8763

## O=C(CC1CCNC1)NCCC(c1ccccc1)c1ccccc1 (centres unmarked) [AD-8972]
hACSS-2; mean, n = 3
  koff: 0.401 s⁻¹
  kon: 2830 M⁻¹ s⁻¹
hACSS-2; [2]
  Kd: 124 µM
hACSS-2; [3]
  Kd: 149 µM
hACSS-2; [4]
  Kd: 116 ± 82 µM

## Cc1cccn2c(CC(=O)NCCC(c3ccccc3)c3ccco3)cnc12 (centres unmarked) [AD-3766]
[1]
  Human Liver Microsome Stability Remaining(T = 60 min): 0.0005
  Human Liver Microsome Stability Remaining(NCF = 60 min): 0.9639
[1]; human liver microsomes, scaled to liver
  Human Liver Microsome Stability CLint(liver): 1364.4891 mL/min/kg
hACSS-2; mean, n = 3
  koff: 0.359 s⁻¹
  kon: 5010 M⁻¹ s⁻¹
hACSS-2; [2]
  Kd: 70.6 µM
hACSS-2; [3]
  Kd: 77.6 µM
hACSS-2; [4]
  Kd: 67 ± 13 µM
Human plasma stability
  half-life at 2 µM: > 289 min

## CN1CCN(CCC(=O)N2CCCC(c3ccccc3)(c3ccccc3)C2)CC1 [AD-0029]
hACSS-2; [4]
  Kd: 356 ± 108 µM

## O=C(CCN1CCCC(c2ccccc2)(c2ccccc2)C1)NC1CC1 [AD-2441]
FASN
  FASN expression levels: downregulates FASN expression levels
MDA-MB-231BR cells
  reproductive cell death (clonogenicity): confirmed
4T1-BR
  BCBM growth, 4T1-BR: suppress BCBM growth
MDA-MB-231-BR
  BCBM growth, MDA-MB-231-BR: suppress BCBM growth

## NC1(C(=O)N2CCCC(c3ccccc3)(c3ccccc3)C2)CC1 [AD-6772]
hACSS-2; [4]
  Kd: 80 ± 20 µM

## O=S(=O)(NCCC(c1ccccc1)c1ccco1)N1CCOCC1 (centres unmarked) [AD-4859]
hACSS-2; [4]
  Kd: 52 ± 2 µM

## C[C@]12CC[C@H]3[C@@H](CCC4=CC(=O)CC[C@@]43C)[C@@H]1CC[C@@H]2O [Testosterone, reference compound]
[1]
  Human Liver Microsome Stability Remaining(T = 60 min): 0.06959
  Human Liver Microsome Stability Remaining(NCF = 60 min): 0.8976
